# Structures can show the parent of a compound that is named as a salt. Where two headings read alike, the source gives them in different places.
# Assays:
# S. mutans = experiment: Antimicrobial studies against S. mutans; assay type: cell-based
# From the text: According to an embodiment, the amphiphilic biologically active agent may be a synthetic, natural or derived compound having properties for treating or preventing a disease or illness, including: pharmaceutical drugs, pharmaceutical conjugated drugs, pharmaceutical prodrugs, antimicrobial or antiseptic agents, antifungal agents, peptides, DNA or any combinations thereof, which when introduced into the body causes a desired biological response. According to another embodiment, the amphiphilic biologically active agent may be an active agent with a suitable biocompatibility index. Such biologically active agent may have a biocompatibility index greater than 1. According to another embodiment, the preferred amphiphilic biologically active agent may be an antibacterial agent. According to a further embodiment, the most preferred amphiphilic biologically active agent may be the antibacterial agent OCT. OCT is an amphiphilic antiseptic agent with a biocompatibility index of greater than 1. OCT has shown a broad range of efficacy against gram positive and negative bacteria and is used currently as a mouth rinse, wound cleansing agent, topical antiseptic, and for other applications. The CMC of OCT was determined to be 3.79 mM.
# [1] = tested on: murine fibroblasts and test microorganisms (Escherichia coli and Staphylococcus aureus); details: cited from earlier work
# [2] = literature values; cited from earlier work
# murine fibroblasts = details: cited from earlier work
# S. aureus = details: cited from earlier work
# mammalian cell = details: cited from earlier work
# E. coli = details: cited from earlier work
# human keratinocyte = details: cited from earlier work
# [3] = tested on: murine fibroblasts and test microorganisms (Escherichia coli and Staphylococcus aureus)
# From the text: The term “biocompatibility index” is defined by the active agent's effective biological activity and its cytotoxic effect on human or animal cells. […] The biocompatibility index will take into account both the results of the in vitro cytotoxicity, i.e., the concentration at which 50% of the murine fibroblasts are damaged, and the microbial effect, i.e., the concentration at which the baseline burden of the test microorganisms (e.g., Escherichia coli and Staphylococcus aureus) is reduced by at least 3 log 10 (99.9%). A biocompatibility index greater than 1 represent an antibacterial substance with an effective microbicidal activity combined with a relatively low cytotoxicity. […] A biocompatibility index less than 1 indicates an antimicrobial agent with a relatively high cytotoxicity in a defined medium.
compound,measurement,setting,value
"CCCCCCCCN=c1ccn(CCCCCCCCCCn2ccc(=NCCCCCCCC)cc2)cc1 [OCT, octenidine dihydrochloride]",antimicrobial activity compared with CHX,S. mutans,compared favorably with CHX
polyhexamethylene biguanide [PHMB],biocompatibility index,[1]; reported in literature,1.36
same,CMC,[2],20 to 50 mM
"CCCCCCCCCCCCCCCC[N+](C)(C)C.[Br-] [CTAB, cetyltrimethylammonium bromide]",concentration for 50% reduction in murine fibroblasts,murine fibroblasts,2 µg/mL
same,minimum inhibitory concentration (MIC) against S. aureus,S. aureus,16 µg/mL
same,biocompatibility index,[1],less than 1
same,concentration able to reduce mammalian cell viability,mammalian cell,less than 1 μM
"CCCCCCCCCCCC(=O)N[C@@H](CCCN=C(N)N)C(=O)OCC [LAE, lauric arginate]",MIC against E. coli,E. coli,11.8 µg/mL
same,concentration for 50% reduction of human keratinocyte growth,human keratinocyte,63 µg/mL
same,CMC,[2],4.9 mM
same,biocompatibility index,[3],5.33
benzalkonium chloride,biocompatibility index,[1],0.79

# Source: patent US12220467B2, “Highly loaded metal oxide materials by self-assembly for extended biologically active molecule release in medical and dental applications” (MESOSIL INC., priority 2016, dated 2025)
